Experimental data: ChEMBL document CHEMBL1201862, “PubChem BioAssay data set” (2004)
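Where inhibition never reached the appropriate level, the endpoint shown equals the highest concentration tested. Otherwise, values were interpolated linearly from a five-concentration, 48-hour dose response in 96-well plates. Here, GI50 denotes the concentration required for 50% inhibition of growth.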 Calls of active or inactive are those of the source. Rule as the data show it: active = GI50 up to about 1.1 µM and inactive = higher.

Experiments:
Test in all cases: DTP human tumour cell line panel, 48 h
HL-60 = system: HL-60
SF-539 = system: SF-539
OVCAR-8 = system: OVCAR-8
SK-MEL-2 = system: SK-MEL-2
SN12C = system: SN12C
SW-620 = system: SW-620
KM-20L2 = system: KM-20L2
HCT-15 = system: HCT-15
NCI-H460 = system: NCI-H460
HOP-92 = system: HOP-92
OVCAR-3 = system: OVCAR-3
A549 = system: A549
KM12 = system: KM12
NCI-H226 = system: NCI-H226
UACC-257 = system: UACC-257
Malme-3M = system: Malme-3M
SR = system: SR
SK-MEL-28 = system: SK-MEL-28
T47D = system: T47D
SNB-75 = system: SNB-75

What does the source list for `CCCN(CCC)C(=O)C(=O)c1c(N)[nH]n(-c2ccccc2)c1=O`?
GI50 (HL-60): 80.9 µM (inactive); GI50 (SF-539): > 100 µM (inactive); GI50 (OVCAR-8): > 100 µM (inactive); GI50 (SK-MEL-2): > 100 µM (inactive); GI50 (SN12C): > 100 µM (inactive); GI50 (SW-620): > 100 µM (inactive); GI50 (KM-20L2): > 100 µM (inactive); GI50 (HCT-15): > 100 µM; GI50 (NCI-H460): > 100 µM (inactive); GI50 (HOP-92): > 100 µM (inactive); GI50 (OVCAR-3): > 100 µM (inactive); GI50 (A549): > 100 µM (inactive); GI50 (KM12): 96.4 µM (inactive); GI50 (NCI-H226): > 100 µM (inactive); GI50 (UACC-257): 45.1 µM (inactive); GI50 (Malme-3M): > 100 µM (inactive)

Which GI50 (HL-60) does the source give for `O=C1c2cc(-c3ccccc3)cnc2S(=O)(=O)N1c1ccc(Br)cc1` here?
The GI50 was 18.9 µM (inactive).

And the GI50 (SF-539)?
The GI50 was 30.5 µM (inactive).

And the GI50 (SR)?
The GI50 was 10.3 µM (inactive).

What about the GI50 (OVCAR-8) of the same molecule?
Its GI50 is 44 µM (inactive).

And the GI50 (SK-MEL-2)?
The GI50 was 96.2 µM (inactive).

And the GI50 (SK-MEL-28)?
The GI50 was 90.8 µM (inactive).

What about the GI50 (T47D) of the same molecule?
The GI50 was 37.7 µM (inactive).

What about the GI50 (SNB-75) of the same molecule?
Its GI50 is 25.1 µM (inactive).

And the GI50 (SN12C)?
The GI50 was > 100 µM (inactive).

What about the GI50 (SW-620) of the same molecule?
The GI50 was 81.8 µM (inactive).

What about the GI50 (HCT-15) of the same molecule?
Its GI50 is 34.7 µM.

What about the GI50 (NCI-H460) of the same molecule?
The GI50 was 24.3 µM (inactive).

What about the GI50 (HOP-92) of the same molecule?
The GI50 was 27.1 µM (inactive).

And the GI50 (OVCAR-3)?
The GI50 was 47.1 µM (inactive).

What about the GI50 (A549) of the same molecule?
Its GI50 is 18.7 µM (inactive).

What about the GI50 (KM12) of the same molecule?
Its GI50 is 25.5 µM (inactive).

What about the GI50 (NCI-H226) of the same molecule?
Its GI50 is > 100 µM (inactive).

And the GI50 (UACC-257)?
The GI50 was > 100 µM (inactive).

And the GI50 (Malme-3M)?
The GI50 was 20.3 µM (inactive).

What does the source list for `c1ccc2c(c1)SC(=C1Sc3ccccc3S1)S2`?
GI50 (OVCAR-8): > 100 µM (inactive); GI50 (SK-MEL-28): > 100 µM (inactive); GI50 (SNB-75): 22.4 µM (inactive); GI50 (SN12C): > 100 µM (inactive); GI50 (SW-620): > 100 µM (inactive); GI50 (KM-20L2): > 100 µM (inactive); GI50 (HCT-15): > 100 µM; GI50 (NCI-H460): 55.8 µM (inactive); GI50 (HOP-92): 61.7 µM (inactive); GI50 (OVCAR-3): > 100 µM (inactive); GI50 (A549): > 100 µM (inactive); GI50 (Malme-3M): > 100 µM (inactive)

For `N#Cc1c(/C=C/c2ccccc2)c2c([nH]c1=S)CCCCC2`, which GI50 (HL-60) is on record?
Its GI50 is > 100 µM (inactive).

What about the GI50 (SF-539) of the same molecule?
The GI50 was > 100 µM (inactive).

What about the GI50 (SR) of the same molecule?
Its GI50 is 84.7 µM (inactive).

And the GI50 (OVCAR-8)?
Its GI50 is > 100 µM (inactive).

And the GI50 (SK-MEL-2)?
Its GI50 is > 100 µM (inactive).

And the GI50 (SK-MEL-28)?
The GI50 was > 100 µM (inactive).

What about the GI50 (T47D) of the same molecule?
The GI50 was > 100 µM (inactive).

What about the GI50 (SNB-75) of the same molecule?
Its GI50 is > 100 µM (inactive).

And the GI50 (SN12C)?
Its GI50 is > 100 µM (inactive).

What about the GI50 (SW-620) of the same molecule?
The GI50 was > 100 µM (inactive).

What about the GI50 (HCT-15) of the same molecule?
Its GI50 is over 100 µM.

What about the GI50 (NCI-H460) of the same molecule?
The GI50 was 4.9 µM (inactive).

What about the GI50 (HOP-92) of the same molecule?
Its GI50 is > 100 µM (inactive).

What about the GI50 (OVCAR-3) of the same molecule?
The GI50 was > 100 µM (inactive).

And the GI50 (A549)?
Its GI50 is > 100 µM (inactive).

And the GI50 (KM12)?
The GI50 was 75.5 µM (inactive).

What about the GI50 (NCI-H226) of the same molecule?
Its GI50 is > 100 µM (inactive).

And the GI50 (UACC-257)?
Its GI50 is > 100 µM (inactive).

And the GI50 (Malme-3M)?
The GI50 was > 100 µM (inactive).

Which GI50 (HL-60) does the source give for `O=C1C(=O)N(c2ccc(Cl)cc2)C(=O)C(=O)C1c1nc2ccccc2o1` here?
Its GI50 is > 100 µM (inactive).

And the GI50 (SF-539)?
The GI50 was > 100 µM (inactive).

What about the GI50 (OVCAR-8) of the same molecule?
Its GI50 is > 100 µM (inactive).

And the GI50 (SK-MEL-2)?
Its GI50 is > 100 µM (inactive).

And the GI50 (SK-MEL-28)?
The GI50 was > 100 µM (inactive).

And the GI50 (SNB-75)?
The GI50 was > 100 µM (inactive).

And the GI50 (SN12C)?
The GI50 was > 100 µM (inactive).

What about the GI50 (SW-620) of the same molecule?
Its GI50 is > 100 µM (inactive).

What about the GI50 (KM-20L2) of the same molecule?
The GI50 was > 100 µM (inactive).

And the GI50 (HCT-15)?
Its GI50 is over 100 µM.

And the GI50 (NCI-H460)?
Its GI50 is > 100 µM (inactive).

What about the GI50 (HOP-92) of the same molecule?
Its GI50 is > 100 µM (inactive).

What about the GI50 (OVCAR-3) of the same molecule?
The GI50 was > 100 µM (inactive).

What about the GI50 (A549) of the same molecule?
The GI50 was > 100 µM (inactive).

What about the GI50 (KM12) of the same molecule?
Its GI50 is > 100 µM (inactive).

And the GI50 (NCI-H226)?
Its GI50 is > 100 µM (inactive).

And the GI50 (UACC-257)?
Its GI50 is > 100 µM (inactive).

And the GI50 (Malme-3M)?
Its GI50 is > 100 µM (inactive).

Which results are given for `COc1cc(C2SCC(=O)N2c2ccc(-c3ccc(-n4c(-c5ccccc5)nc5ccccc5c4=O)cc3)cc2)ccc1O` (stereo unspecified)?
GI50 (HL-60): 65.3 µM (inactive); GI50 (SF-539): 54.7 µM (inactive); GI50 (SR): > 10 µM (inactive); GI50 (OVCAR-8): 96.6 µM (inactive); GI50 (SK-MEL-2): > 100 µM (inactive); GI50 (SK-MEL-28): > 100 µM (inactive); GI50 (T47D): 14.4 µM (inactive); GI50 (SNB-75): 15 µM (inactive); GI50 (SN12C): > 100 µM (inactive); GI50 (SW-620): 82 µM (inactive); GI50 (HCT-15): 25.8 µM; GI50 (NCI-H460): > 100 µM (inactive); GI50 (HOP-92): 30.9 µM (inactive); GI50 (OVCAR-3): 61.5 µM (inactive); GI50 (A549): > 100 µM (inactive); GI50 (KM12): 48.2 µM (inactive); GI50 (NCI-H226): 30.9 µM (inactive); GI50 (UACC-257): > 100 µM (inactive); GI50 (Malme-3M): > 100 µM (inactive)

What does the source list for `CC1OC(OC2C[C@](O)(C(=O)CBr)Cc3c(O)c4c(c(O)c32)C(=O)c2ccccc2C4=O)C(F)C(O)C1O` (stereo partly specified)?
GI50 (HL-60): 0.838 µM (active); GI50 (SF-539): 4.54 µM (inactive); GI50 (SR): 0.426 µM (active); GI50 (OVCAR-8): 16.1 µM (inactive); GI50 (SK-MEL-2): 29.6 µM (inactive); GI50 (SK-MEL-28): 23.8 µM (inactive); GI50 (T47D): 5.35 µM (inactive); GI50 (SNB-75): 8.83 µM (inactive); GI50 (SN12C): 6.92 µM (inactive); GI50 (SW-620): 2.69 µM (inactive); GI50 (HCT-15): 5.86 µM; GI50 (NCI-H460): 0.783 µM (active); GI50 (HOP-92): 4.21 µM (inactive); GI50 (OVCAR-3): 13.9 µM (inactive); GI50 (A549): 4.67 µM (inactive); GI50 (KM12): 19.6 µM (inactive); GI50 (NCI-H226): 12.7 µM (inactive); GI50 (UACC-257): 13.3 µM (inactive); GI50 (Malme-3M): 3.66 µM (inactive)

How did the GI50 (HL-60) turn out when `CN(C)c1ccccc1CN1CCCN(Cc2ccccc2N(C)C)C1c1ccncc1` was run?
The GI50 was 13 µM (inactive).

What about the GI50 (SF-539) of the same molecule?
Its GI50 is 16.4 µM (inactive).

And the GI50 (SR)?
The GI50 was 4.91 µM (inactive).

And the GI50 (OVCAR-8)?
The GI50 was 15.4 µM (inactive).

What about the GI50 (SK-MEL-2) of the same molecule?
Its GI50 is 17.8 µM (inactive).

What about the GI50 (SK-MEL-28) of the same molecule?
Its GI50 is 9.06 µM (inactive).

And the GI50 (T47D)?
The GI50 was 17.7 µM (inactive).

And the GI50 (SNB-75)?
Its GI50 is 17.6 µM (inactive).

What about the GI50 (SN12C) of the same molecule?
The GI50 was 20.4 µM (inactive).

And the GI50 (SW-620)?
Its GI50 is 16.3 µM (inactive).

What about the GI50 (HCT-15) of the same molecule?
The GI50 was 22.2 µM.

What about the GI50 (NCI-H460) of the same molecule?
Its GI50 is 14 µM (inactive).

What about the GI50 (HOP-92) of the same molecule?
Its GI50 is 3.47 µM (inactive).

And the GI50 (OVCAR-3)?
The GI50 was 14.6 µM (inactive).

What about the GI50 (A549) of the same molecule?
Its GI50 is 17.4 µM (inactive).

And the GI50 (KM12)?
Its GI50 is 19.1 µM (inactive).

What about the GI50 (NCI-H226) of the same molecule?
Its GI50 is 21.4 µM (inactive).

And the GI50 (UACC-257)?
Its GI50 is 2.42 µM (inactive).

And the GI50 (Malme-3M)?
The GI50 was 10.4 µM (inactive).
